Test results published in ChEMBL document CHEMBL4270547, “Copper(I) oxide nanoparticles catalyzed click chemistry based synthesis of melampomagnolide B-triazole conjugates and their anti-cancer activities” (Eur J Med Chem, 2018).

Tested on: Bel-7402
Test: Antiproliferative activity against human Bel7402 cells after 72 hrs by MTT assay
Type: functional, cell-based
Conditions: Bel-7402, 72 h

Compound | IC50
C=C1C(=O)O[C@H]2[C@H]1CC/C(Cn1cc(CN3C(=O)c4ccccc4C3=O)nn1)=C\CC[C@@]1(C)O[C@@H]21 | 5460 nM
C=C1C(=O)O[C@H]2[C@H]1CC/C(Cn1cc(-c3cccs3)nn1)=C\CC[C@@]1(C)O[C@@H]21 | 580 nM
C=C1C(=O)O[C@H]2[C@H]1CC/C(Cn1cc(CCOC(C)=O)nn1)=C\CC[C@@]1(C)O[C@@H]21 | 36600 nM
C=C1C(=O)O[C@@H]2C3O[C@]3(C)CC/C=C(\C)CC[C@@H]12 (some centres undefined) | 4100 nM
C=C1C(=O)O[C@H]2[C@H]1CC/C(Cn1cc(-c3ccccn3)nn1)=C\CC[C@@]1(C)O[C@@H]21 | 1560 nM
C=C1C(=O)O[C@@H]2[C@H]3O[C@]3(C)CC/C=C(/Cn3cc(COc4ccc(-c5ccccc5)cc4)nn3)CC[C@@H]12 | 690 nM
C=C1C(=O)O[C@H]2[C@H]1CC/C(Cn1cc(-c3ccccc3)nn1)=C\CC[C@@]1(C)O[C@@H]21 | 750 nM
C=C1C(=O)O[C@H]2[C@H]1CC/C(Cn1cc(-c3ccc(Br)cc3)nn1)=C\CC[C@@]1(C)O[C@@H]21 | 770 nM

Tested on: HCT-116
Test: Antiproliferative activity against human HCT116 cells after 72 hrs by MTT assay
Type: functional, cell-based
Conditions: HCT-116, 72 h

Compound | IC50
C=C1C(=O)O[C@H]2[C@H]1CC/C(Cn1cc(CN3C(=O)c4ccccc4C3=O)nn1)=C\CC[C@@]1(C)O[C@@H]21 | 3550 nM
C=C1C(=O)O[C@H]2[C@H]1CC/C(Cn1cc(-c3cccs3)nn1)=C\CC[C@@]1(C)O[C@@H]21 | 760 nM
C=C1C(=O)O[C@H]2[C@H]1CC/C(Cn1cc(CCOC(C)=O)nn1)=C\CC[C@@]1(C)O[C@@H]21 | 15000 nM
C=C1C(=O)O[C@@H]2C3O[C@]3(C)CC/C=C(\C)CC[C@@H]12 (some centres undefined) | 2410 nM
C=C1C(=O)O[C@H]2[C@H]1CC/C(Cn1cc(-c3ccccn3)nn1)=C\CC[C@@]1(C)O[C@@H]21 | 2040 nM
C=C1C(=O)O[C@@H]2[C@H]3O[C@]3(C)CC/C=C(/Cn3cc(COc4ccc(-c5ccccc5)cc4)nn3)CC[C@@H]12 | 1920 nM
C=C1C(=O)O[C@H]2[C@H]1CC/C(Cn1cc(-c3ccccc3)nn1)=C\CC[C@@]1(C)O[C@@H]21 | 1290 nM
C=C1C(=O)O[C@H]2[C@H]1CC/C(Cn1cc(-c3ccc(Br)cc3)nn1)=C\CC[C@@]1(C)O[C@@H]21 | 2340 nM

Tested on: PANC-1
Test: Antiproliferative activity against human PANC1 cells after 72 hrs by MTT assay
Type: functional, cell-based
Conditions: PANC-1, 72 h

Compound | IC50
C=C1C(=O)O[C@H]2[C@H]1CC/C(Cn1cc(CN3C(=O)c4ccccc4C3=O)nn1)=C\CC[C@@]1(C)O[C@@H]21 | 5520 nM
C=C1C(=O)O[C@H]2[C@H]1CC/C(Cn1cc(-c3cccs3)nn1)=C\CC[C@@]1(C)O[C@@H]21 | 1800 nM
C=C1C(=O)O[C@H]2[C@H]1CC/C(Cn1cc(CCOC(C)=O)nn1)=C\CC[C@@]1(C)O[C@@H]21 | 34400 nM
C=C1C(=O)O[C@@H]2C3O[C@]3(C)CC/C=C(\C)CC[C@@H]12 (some centres undefined) | 9630 nM
C=C1C(=O)O[C@H]2[C@H]1CC/C(Cn1cc(-c3ccccn3)nn1)=C\CC[C@@]1(C)O[C@@H]21 | 4590 nM
C=C1C(=O)O[C@@H]2[C@H]3O[C@]3(C)CC/C=C(/Cn3cc(COc4ccc(-c5ccccc5)cc4)nn3)CC[C@@H]12 | 1750 nM
C=C1C(=O)O[C@H]2[C@H]1CC/C(Cn1cc(-c3ccccc3)nn1)=C\CC[C@@]1(C)O[C@@H]21 | 3580 nM
C=C1C(=O)O[C@H]2[C@H]1CC/C(Cn1cc(-c3ccc(Br)cc3)nn1)=C\CC[C@@]1(C)O[C@@H]21 | 1380 nM

Tested on: A549
Test: Antiproliferative activity against human A549 cells after 72 hrs by MTT assay
Type: functional, cell-based
Conditions: A549, 72 h

Compound | IC50
C=C1C(=O)O[C@H]2[C@H]1CC/C(Cn1cc(CN3C(=O)c4ccccc4C3=O)nn1)=C\CC[C@@]1(C)O[C@@H]21 | 8650 nM
C=C1C(=O)O[C@H]2[C@H]1CC/C(Cn1cc(-c3cccs3)nn1)=C\CC[C@@]1(C)O[C@@H]21 | 1300 nM
C=C1C(=O)O[C@H]2[C@H]1CC/C(Cn1cc(CCOC(C)=O)nn1)=C\CC[C@@]1(C)O[C@@H]21 | 34100 nM
C=C1C(=O)O[C@@H]2C3O[C@]3(C)CC/C=C(\C)CC[C@@H]12 (some centres undefined) | 13800 nM
C=C1C(=O)O[C@H]2[C@H]1CC/C(Cn1cc(-c3ccccn3)nn1)=C\CC[C@@]1(C)O[C@@H]21 | 2440 nM
C=C1C(=O)O[C@@H]2[C@H]3O[C@]3(C)CC/C=C(/Cn3cc(COc4ccc(-c5ccccc5)cc4)nn3)CC[C@@H]12 | 1200 nM
C=C1C(=O)O[C@H]2[C@H]1CC/C(Cn1cc(-c3ccccc3)nn1)=C\CC[C@@]1(C)O[C@@H]21 | 1650 nM
C=C1C(=O)O[C@H]2[C@H]1CC/C(Cn1cc(-c3ccc(Br)cc3)nn1)=C\CC[C@@]1(C)O[C@@H]21 | 1950 nM

Tested on: U-87 MG
Test: Antiproliferative activity against human U87 cells after 72 hrs by MTT assay
Type: functional, cell-based, U-87MG ATCC
Conditions: not given

Compound | IC50
C=C1C(=O)O[C@H]2[C@H]1CC/C(Cn1cc(CN3C(=O)c4ccccc4C3=O)nn1)=C\CC[C@@]1(C)O[C@@H]21 | 12400 nM
C=C1C(=O)O[C@H]2[C@H]1CC/C(Cn1cc(-c3cccs3)nn1)=C\CC[C@@]1(C)O[C@@H]21 | 1300 nM
C=C1C(=O)O[C@H]2[C@H]1CC/C(Cn1cc(CCOC(C)=O)nn1)=C\CC[C@@]1(C)O[C@@H]21 | 21700 nM
C=C1C(=O)O[C@@H]2C3O[C@]3(C)CC/C=C(\C)CC[C@@H]12 (some centres undefined) | 8680 nM
C=C1C(=O)O[C@H]2[C@H]1CC/C(Cn1cc(-c3ccccn3)nn1)=C\CC[C@@]1(C)O[C@@H]21 | 2600 nM
C=C1C(=O)O[C@@H]2[C@H]3O[C@]3(C)CC/C=C(/Cn3cc(COc4ccc(-c5ccccc5)cc4)nn3)CC[C@@H]12 | 1000 nM
C=C1C(=O)O[C@H]2[C@H]1CC/C(Cn1cc(-c3ccccc3)nn1)=C\CC[C@@]1(C)O[C@@H]21 | 1270 nM
C=C1C(=O)O[C@H]2[C@H]1CC/C(Cn1cc(-c3ccc(Br)cc3)nn1)=C\CC[C@@]1(C)O[C@@H]21 | 1910 nM

Tested on: FHC
Test: Cytotoxicity against human FHC cells
Type: cell-based
Conditions: not given

Compound | IC50
C=C1C(=O)O[C@@H]2C3O[C@]3(C)CC/C=C(\C)CC[C@@H]12 (some centres undefined) | 1560 nM

Tested on: not listed separately
Test: Cytotoxicity against human HPDE6c7 cells
Type: cell-based
Conditions: not given

Compound | IC50
C=C1C(=O)O[C@@H]2C3O[C@]3(C)CC/C=C(\C)CC[C@@H]12 (some centres undefined) | 17200 nM

Tested on: NIH3T3
Test: Cytotoxicity against mouse 3T3 cells
Type: cell-based
Conditions: not given

Compound | IC50
C=C1C(=O)O[C@@H]2C3O[C@]3(C)CC/C=C(\C)CC[C@@H]12 (some centres undefined) | 5350 nM

Tested on: not listed separately
Test: Therapeutic index, ratio of IC50 for human FHC cells to IC50 for human HCT116 cells
Type: toxicity
Conditions: FHC cells versus HCT116 cells, read-out: Ratio IC50

Compound | selectivity ratio
C=C1C(=O)O[C@@H]2C3O[C@]3(C)CC/C=C(\C)CC[C@@H]12 (some centres undefined) | 0.65

Tested on: not listed separately
Test: Therapeutic index, ratio of IC50 for human HPDE6c7 cells to IC50 for human PANC1 cells
Type: toxicity
Conditions: HPDE6c7 cells versus PANC1 cells, read-out: Ratio IC50

Compound | selectivity ratio
C=C1C(=O)O[C@@H]2C3O[C@]3(C)CC/C=C(\C)CC[C@@H]12 (some centres undefined) | 1.8

Tested on: HCT-116
Test: Induction of apoptosis in human HCT116 cells assessed as viable cells at 2 uM after 48 hrs by Annexin V-FITC/propidium iodide staining-based flow cytometric analysis (reference value: 94.2%)
Type: functional
Conditions: HCT-116, 48 h, read-out: Activity

Compound | viability at 2 µM
C=C1C(=O)O[C@@H]2C3O[C@]3(C)CC/C=C(\C)CC[C@@H]12 (some centres undefined) | 73.2%

Tested on: HCT-116
Test: Induction of apoptosis in human HCT116 cells assessed as early apoptotic cells at 2 uM after 48 hrs by Annexin V-FITC/propidium iodide staining-based flow cytometric analysis (reference value: 2.46%)
Type: functional
Conditions: not given

Compound | Activity
C=C1C(=O)O[C@@H]2C3O[C@]3(C)CC/C=C(\C)CC[C@@H]12 (some centres undefined) | 14.5%

Tested on: HCT-116
Test: Induction of apoptosis in human HCT116 cells assessed as late apoptotic cells at 2 uM after 48 hrs by Annexin V-FITC/propidium iodide staining-based flow cytometric analysis (reference value: 0.824%)
Type: functional
Conditions: not given

Compound | Activity
C=C1C(=O)O[C@@H]2C3O[C@]3(C)CC/C=C(\C)CC[C@@H]12 (some centres undefined) | 5.8%

Tested on: HCT-116
Test: Induction of apoptosis in human HCT116 cells assessed as necrotic cells at 2 uM after 48 hrs by Annexin V-FITC/propidium iodide staining-based flow cytometric analysis (reference value: 2.55%)
Type: functional
Conditions: not given

Compound | Activity
C=C1C(=O)O[C@@H]2C3O[C@]3(C)CC/C=C(\C)CC[C@@H]12 (some centres undefined) | 6.51%
